Reference: publication PMC8551263, “Optineurin modulates the maturation of dendritic cells to regulate autoimmunity through JAK2-STAT3 signaling” (Nature Communications, 2021)

Molecular target: T1, OPTN (Homo sapiens, UniProt Q96CV9)
T1 construct: protein for SPR
Assay: surface plasmon resonance
Format: binding
Details: rapid on-rate and off-rate kinetics; sensorgrams in Supplementary Fig. 7a, b

T1 sequence (Q96CV9 whole entry): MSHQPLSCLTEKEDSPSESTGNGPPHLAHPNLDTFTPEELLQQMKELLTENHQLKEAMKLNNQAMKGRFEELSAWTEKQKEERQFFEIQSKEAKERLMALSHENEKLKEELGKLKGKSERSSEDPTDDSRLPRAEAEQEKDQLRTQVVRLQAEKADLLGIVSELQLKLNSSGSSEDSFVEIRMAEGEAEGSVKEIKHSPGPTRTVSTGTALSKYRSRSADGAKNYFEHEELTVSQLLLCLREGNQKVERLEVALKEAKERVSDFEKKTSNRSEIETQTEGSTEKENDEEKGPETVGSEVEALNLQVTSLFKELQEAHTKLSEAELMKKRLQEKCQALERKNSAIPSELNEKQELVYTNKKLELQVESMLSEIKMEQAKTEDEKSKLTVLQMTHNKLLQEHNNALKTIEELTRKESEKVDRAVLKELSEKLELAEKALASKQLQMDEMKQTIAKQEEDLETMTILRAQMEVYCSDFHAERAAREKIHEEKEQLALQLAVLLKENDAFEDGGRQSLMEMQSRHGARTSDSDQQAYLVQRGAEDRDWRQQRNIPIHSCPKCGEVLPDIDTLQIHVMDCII

KD: 5.115 × e^−5 M
Compound: C[C@H]1O[C@@H](O[C@H]2CC[C@@]3(C)[C@@H](CC[C@]4(C)[C@@H]3C=C[C@]35OC[C@@]6(CCC(C)(C)C[C@H]63)[C@H](O)C[C@]54C)[C@]2(C)CO)[C@H](O)[C@@H](O[C@@H]2O[C@H](CO)[C@@H](O)[C@H](O)[C@H]2O)[C@H]1O [Saikosaponin D]
